The values below come from patent US8173682B2, “Substituted pyridones as inhibitors of poly(ADP-ribose) polymerase (PARP)” (Aventis Pharmaceuticals Inc., priority 2004, dated 2012).

The target of assay [1] is T1, recombinant human PARP (PARP1) (Homo sapiens, UniProt P09874).
T1 construct: Full length human PARP (PARP1) is assembled from PCR fragments; His6 tag with TEV site, from the pFastBac-HTb vector (own knowledge of the vector); made in house; host or cells: insect cells, baculovirus (Bac-to-Bac, Gibco-BRL)
The assay is described as follows: PARP enzyme assay, Method A (radioactivity or 'ELISA' enzyme assay with partially purified enzyme). The assay is classed as biochemical. To be noted: recombinant human PARP preparation, radioactive or ELISA enzyme assay. The gist of the method: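 Partially purified recombinant full-length His-tagged human PARP1, baculovirus-expressed. Radioactive format: 100 μg/mL sonicated DNA, 100 μg/mL histones, 100 mM Tris pH 8.0, 10 mM MgCl2, 200 μM labeled NAD, 10 min 37 °C or 60 min RT, TCA-precipitated counts. ELISA format: 250 μM NAD plus biotin-NAD on histone plates, TMB A450.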
A general note: ELISA stands for enzyme-linked immunosorbent assay.

Assay [2] relates to intracellular synthesis of poly(ADP-ribose) in HL60 cells. Description: Cell-based PARP assay (poly(ADP-ribose) immunodetection in fixed cells). Particulars: Homo sapiens, HL-60, overnight incubation with compound, serum-free media. As to the method:
The following example illustrates the efficacy of the compounds of this invention in inhibiting the effects of PARP in a cell based assay.
Reagents: Media RMPI 1640+Glutamax: Gibco 61870-044); TBST/milk, TBST (Sigma T93039) containing 5% skimmed milk (Nestle Carnation nonfat dry milk)
HL60 cells at […] in serum free media are seeded into the wells of a 96-well plate at 100 μL/well. The plate is pre-incubated for 3 hr under normal tissue culture conditions. One hundred μL of serum-free media containing compound at 2× the required concentration in 0.6% DMSO are added (or 0.6% DMSO only to controls and blanks). The plate is incubated overnight under normal tissue culture conditions, then centrifuged at 190×g for 5 min at 4° C. to pellet cells. The media is carefully removed by aspiration, and the cells are incubated in 100 μL/well ice-cold 0.56% KCl for 2 min on ice. The plate is centrifuged as above to pellet cells, the KCl removed by aspiration, and 100 μL/well ice-cold methanol added. After 4 min on ice, methanol is removed by aspiration and the cells air-dried for 10-15 min at rt. The cells are washed with PBS×3, then washed with TBST/milk (1 wash, 5 min incubation at rt). The cells are incubated with 100 μL/well 0.25% Triton X 100 in PBS for 10 min at RT, then washed x# with PBS and ×1 with TBST. The cells are blocked for 1 hr with TBST/milk (200 μL/well) and then washed ×1 with TBST. The fixed cells are incubated with primary antibody (Calbiochem cat no. 528815) at 1:2000 dilution in TBST/milk (100 μL/well, overnight at 4 deg C.). The cells are washed with TBST (2 rinses, 1×15 min, 2×5 min at RT). The cells are incubated with secondary antibody (anti-rabbit Ig-biotin conjugate, Amersham RPN1004) in TBST/milk at 1:3500 dilution, 100 μL/well for 1 hr at RT. The cells are washed with TBST (2 rinses, 1×15 min, 2×5 min at RT). The cells are then incubated with 100 μL/well of 4-MUP (Sigma, M3168) in the dark for 4 hrs. The fluorescence is read using a plate reader (excitation at 360 nm, emission at 440 nm). To calculate compound effects, the fluorescence of the blank (no cells) is subtracted from all data. Fluorescence obtained with a standard cell-permeable potent inhibitor at 30 μM is subtracted from all other groups as this appears to represent a true blank. Compound effects can then be determined: a PARP inhibitor blocks the intracellular synthesis of poly(ADP-ribose), and results in a decreased reactivity (reduced final fluorescence) with primary antibody in the fixed and permeabilized cells.
The results obtained from this study are expressed as EC50 (median effective concentration of the test compound that was effective in preventing the cell death—expressed in micromolar (μM) concentration) for each of the tested compounds and are summarized in Table 2.

SMILES strings stand for the structures. Where a name gives a salt, the structure may show the parent alone.

T1 sequence (P09874 whole entry, the tested form may be a part): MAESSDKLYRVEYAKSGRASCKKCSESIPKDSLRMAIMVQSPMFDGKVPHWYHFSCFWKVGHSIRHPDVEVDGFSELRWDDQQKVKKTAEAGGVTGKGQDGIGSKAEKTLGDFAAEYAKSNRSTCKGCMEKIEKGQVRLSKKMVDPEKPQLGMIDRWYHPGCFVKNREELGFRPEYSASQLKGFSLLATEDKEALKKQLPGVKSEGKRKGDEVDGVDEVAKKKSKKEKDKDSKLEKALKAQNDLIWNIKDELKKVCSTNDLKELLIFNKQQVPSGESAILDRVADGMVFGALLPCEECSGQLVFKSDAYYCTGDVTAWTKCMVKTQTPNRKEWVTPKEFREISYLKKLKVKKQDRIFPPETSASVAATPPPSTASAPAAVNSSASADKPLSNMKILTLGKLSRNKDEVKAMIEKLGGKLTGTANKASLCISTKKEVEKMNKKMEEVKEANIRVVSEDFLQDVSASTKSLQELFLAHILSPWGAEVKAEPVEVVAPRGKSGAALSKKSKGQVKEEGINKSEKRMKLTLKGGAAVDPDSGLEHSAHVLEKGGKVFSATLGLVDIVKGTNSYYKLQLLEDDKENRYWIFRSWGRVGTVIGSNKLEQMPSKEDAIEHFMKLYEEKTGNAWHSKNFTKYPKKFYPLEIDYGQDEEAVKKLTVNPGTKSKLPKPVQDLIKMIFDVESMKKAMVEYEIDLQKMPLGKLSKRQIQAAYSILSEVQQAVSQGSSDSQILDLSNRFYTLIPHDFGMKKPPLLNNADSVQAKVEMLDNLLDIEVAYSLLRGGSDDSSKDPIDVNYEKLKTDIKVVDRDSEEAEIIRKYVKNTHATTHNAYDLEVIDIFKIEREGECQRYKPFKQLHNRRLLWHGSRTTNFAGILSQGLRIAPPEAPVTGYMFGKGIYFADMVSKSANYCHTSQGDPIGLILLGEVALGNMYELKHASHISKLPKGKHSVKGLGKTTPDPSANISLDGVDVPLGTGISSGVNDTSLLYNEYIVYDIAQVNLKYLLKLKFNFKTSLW

In the case of `CCc1cc(-c2ccc(S(=O)(=O)NCCNC(C)=O)s2)c(C)[nH]c1=O` [Example 119, N-{2-[5-(5-Ethyl-2-methyl-6-oxo-1,6-dihydropyridin-3-yl)thiophene-2-sulfonylamino]ethyl}acetamide], in assay [1], the IC50 is 0.38 µM. Further, the EC50 in assay [2] amounted to 800 nM.

Regarding `CCc1cc(-c2ccc(CN3CCCC(O)C3)s2)c(C)[nH]c1=O` (centres unmarked) [Example 126, 3-Ethyl-5-[5-(3-hydroxypiperidin-1-ylmethyl)thiophen-2-yl]-6-methyl-1H-pyridin-2-one hydrochloride], in assay [1], the IC50 was 0.43 µM. The EC50 in assay [2] turned out to be 30800 nM.

`CCc1cc(-c2ccc(CNC(C)c3ccccc3)s2)c(C)[nH]c1=O` (centres unmarked) [Example 135, 3-Ethyl-6-methyl-5-{5-[(1-phenyl-ethylamino)-methyl]thiophen-2-yl}-1H-pyridin-2-one hydrochloride]: the IC50 in assay [1] is 0.35 µM. Further, the EC50 in assay [2] stood at 12200 nM.

Consider `CCc1cc(-c2ccc(CNC(C)CCc3ccccc3)s2)c(C)[nH]c1=O` (centres unmarked) [Example 136, 3-Ethyl-6-methyl-5-{5-[(1-methyl-3-phenyl-propylamino)-methyl]thiophen-2-yl}-1H-pyridin-2-one hydrochloride], for which the IC50 in assay [1] was 0.46 µM. Further, the EC50 in assay [2] is 14700 nM.

Take `CCc1cc(-c2ccc(CNCC3CCCCC3)s2)c(C)[nH]c1=O` [Example 143, 5-(5-Cyclohexylmethylaminomethylthiophen-2-yl)-3-ethyl-6-methyl-1H-pyridin-2-one hydrochloride]: in assay [1], the IC50 worked out at 0.39 µM. For the same compound, the EC50 in assay [2] came out at 1430 nM.

As to `CCc1cc(-c2ccc(CNCCOc3ccccc3)s2)c(C)[nH]c1=O` [Example 146, 3-Ethyl-6-methyl-5-{5-[(2-phenoxyethylamino)-methyl]thiophen-2-yl}-1H-pyridin-2-one hydrochloride], the IC50 in assay [1] was determined as 0.24 µM. Besides, the EC50 in assay [2] was found to be 970 nM.

Take `CCc1cc(-c2ccc(CN3CCCCC3)s2)c(C)[nH]c1=O` [Example 148, 3-ethyl-6-methyl-5-(5-piperidin-1-ylmethy-thiophen-2-yl)-1H-pyridin-2-one hydrochloride]: the IC50 in assay [1] was determined as 0.41 µM. The half-maximal effective concentration (EC50) in assay [2] worked out at 520 nM.

The term IC50 denotes the concentration at which inhibition is half-maximal. The EC50 is the concentration needed to bring the measured effect to its halfway point.
